According to patent publication US7375081B2, “Therapeutic combination of a pneumocandin derivative and an antifungal agent” (Astellas Pharma Inc., priority 1999, dated 2008):
Read-outs that look alike come from different tables or passages of the source. Blank lines part the entries; values can stand above or below the compound they belong to.

Test system: clinical isolates of Aspergillus fumigatus
Test: Broth microdilution checkerboard MIC, RPMI medium (pH 7.0), drugs alone and combined
Format: cell-based
Settings: for MIC: Aspergillus fumigatus
Method: The broth microdillution method using RPMI medium (pH 7.0) was used, comparing the each drug alone (Test Compound, AMPH-B, ITCZ, Nikkomycin X and 5-FC) and combined for each clinical isolates of Aspergillus fumigatus. A combination of drug concentrations was evaluated by the checkerboard method.
All tubes were examined macroscopically for growth and compared to a control (no drug). MIC was visually determined as the lowest concentration resulting in prominent decrease in turbidity compared to controls.
The Fractional Inhibitory Concentration (FIC) for each drug in mixture wells was compared to the MIC for each drug alone. The FIC index was calculated from the sum of the FICs for the two drugs. A quantitative expression of the interaction for inhibition is as follows: Synergy≦0.5; Test Result In vitro combination with Test Compound and AMPH-B against A. fumigatus

SMILES: C[C@@H]([C@H](N)C(=O)N[C@H](C(=O)O)[C@H]1OC(n2cc(C=O)nc2O)[C@H](O)[C@@H]1O)[C@H](O)c1ccc(O)cn1 (stereo partly shown) [Nikkomycin X, nikkomycin X]
MIC Nikkomycin X Alone (A. fumigatus FP1923, drug alone): 128 µg/mL | MIC Nikkomycin X Combination (A. fumigatus FP1923, in combination with Test Compound): 4 µg/mL

SMILES: CCCCCOc1ccc(-c2cc(-c3ccc(C(=O)NC4CC(O)C(O)NC(=O)C5C(O)C(C)CN5C(=O)C(C(O)CC(N)=O)NC(=O)C(C(O)C(O)c5ccc(O)c(OS(=O)(=O)[O-])c5)NC(=O)C5CC(O)CN5C(=O)C(C(C)O)NC4=O)cc3)no2)cc1.[Na+] (stereo not shown) [Test Compound]
MIC Test Compound Combination (A. fumigatus 8004, in combination with AMPH-B): 0.0078 µg/mL | MIC Test Compound Combination (A. fumigatus 8008, in combination with ITCZ): 0.0078 µg/mL | MIC Test Compound Combination (A. fumigatus FP1923, in combination with Nikkomycin X): ≦0.001 μg/ml | MIC Test Compound Combination (A. fumigatus FP1990, in combination with 5-FC): 0.002 µg/mL | MIC (read-out: MIC Test Compound Alone, A. fumigatus 8004, drug alone): 0.0313 µg/mL | MIC (read-out: MIC Test Compound Alone, A. fumigatus 8008, drug alone): 0.0313 µg/mL | MIC (read-out: MIC Test Compound Alone, A. fumigatus FP1923, drug alone): 0.0039 µg/mL | MIC (read-out: MIC Test Compound Alone, A. fumigatus FP1990, drug alone): 0.0078 µg/mL

Other lines, results leading:

MIC ITCZ Combination (A. fumigatus 8008, in combination with Test Compound): 0.125 µg/mL | MIC (A. fumigatus 8008, drug alone, read-out: MIC ITCZ Alone): 0.5 µg/mL
SMILES: CCC(C)n1ncn(-c2ccc(N3CCN(c4ccc(OCC5COC(Cn6cncn6)(c6ccc(Cl)cc6Cl)O5)cc4)CC3)cc2)c1=O (stereo not shown) [ITCZ, itraconazole]

MIC 5-FC Combination (A. fumigatus FP1990, in combination with Test Compound): 8 µg/mL | MIC (A. fumigatus FP1990, drug alone, read-out: MIC 5-FC Alone): > 32 µg/mL
SMILES: Nc1[nH]c(=O)ncc1F [5-FC, flucytosine]

MIC AMPH-B Alone (A. fumigatus 8004, drug alone): 2 µg/mL | MIC AMPH-B Combination (A. fumigatus 8004, in combination with Test Compound): 0.5 µg/mL
SMILES: C[C@@H]1[C@H](O)[C@@H](C)/C=C/C=C/C=C/C=C/C=C/C=C/C=C/[C@H](O[C@@H]2O[C@H](C)[C@@H](O)[C@H](N)[C@@H]2O)C[C@@H]2O[C@](O)(C[C@@H](O)C[C@@H](O)[C@H](O)CC[C@@H](O)C[C@@H](O)CC(=O)O[C@H]1C)C[C@H](O)[C@H]2C(=O)O [AMPH-B, amphotericin B]
